Data reported in publication PMC7917901 (Marine Drugs, 2021).
“Also recorded” adds a separate entry of the source. Positions of bridges follow the written chain, without caps; N, C: chain ends. Residues, ends and D or L forms follow the SMILES beside them.

Legend:
[1] = target: T1, endogenous CaV2.2 channels, expressed in the SH-SY5Y cells (Homo sapiens, UniProt Q00975); assay: cell-based
T1 construct: endogenous CaV2.2 channels, expressed in the SH-SY5Y cells; endogenous in cells; host or cells: SH-SY5Y human neuroblastoma cells
T1 sequence (Q00975 whole entry, looked up): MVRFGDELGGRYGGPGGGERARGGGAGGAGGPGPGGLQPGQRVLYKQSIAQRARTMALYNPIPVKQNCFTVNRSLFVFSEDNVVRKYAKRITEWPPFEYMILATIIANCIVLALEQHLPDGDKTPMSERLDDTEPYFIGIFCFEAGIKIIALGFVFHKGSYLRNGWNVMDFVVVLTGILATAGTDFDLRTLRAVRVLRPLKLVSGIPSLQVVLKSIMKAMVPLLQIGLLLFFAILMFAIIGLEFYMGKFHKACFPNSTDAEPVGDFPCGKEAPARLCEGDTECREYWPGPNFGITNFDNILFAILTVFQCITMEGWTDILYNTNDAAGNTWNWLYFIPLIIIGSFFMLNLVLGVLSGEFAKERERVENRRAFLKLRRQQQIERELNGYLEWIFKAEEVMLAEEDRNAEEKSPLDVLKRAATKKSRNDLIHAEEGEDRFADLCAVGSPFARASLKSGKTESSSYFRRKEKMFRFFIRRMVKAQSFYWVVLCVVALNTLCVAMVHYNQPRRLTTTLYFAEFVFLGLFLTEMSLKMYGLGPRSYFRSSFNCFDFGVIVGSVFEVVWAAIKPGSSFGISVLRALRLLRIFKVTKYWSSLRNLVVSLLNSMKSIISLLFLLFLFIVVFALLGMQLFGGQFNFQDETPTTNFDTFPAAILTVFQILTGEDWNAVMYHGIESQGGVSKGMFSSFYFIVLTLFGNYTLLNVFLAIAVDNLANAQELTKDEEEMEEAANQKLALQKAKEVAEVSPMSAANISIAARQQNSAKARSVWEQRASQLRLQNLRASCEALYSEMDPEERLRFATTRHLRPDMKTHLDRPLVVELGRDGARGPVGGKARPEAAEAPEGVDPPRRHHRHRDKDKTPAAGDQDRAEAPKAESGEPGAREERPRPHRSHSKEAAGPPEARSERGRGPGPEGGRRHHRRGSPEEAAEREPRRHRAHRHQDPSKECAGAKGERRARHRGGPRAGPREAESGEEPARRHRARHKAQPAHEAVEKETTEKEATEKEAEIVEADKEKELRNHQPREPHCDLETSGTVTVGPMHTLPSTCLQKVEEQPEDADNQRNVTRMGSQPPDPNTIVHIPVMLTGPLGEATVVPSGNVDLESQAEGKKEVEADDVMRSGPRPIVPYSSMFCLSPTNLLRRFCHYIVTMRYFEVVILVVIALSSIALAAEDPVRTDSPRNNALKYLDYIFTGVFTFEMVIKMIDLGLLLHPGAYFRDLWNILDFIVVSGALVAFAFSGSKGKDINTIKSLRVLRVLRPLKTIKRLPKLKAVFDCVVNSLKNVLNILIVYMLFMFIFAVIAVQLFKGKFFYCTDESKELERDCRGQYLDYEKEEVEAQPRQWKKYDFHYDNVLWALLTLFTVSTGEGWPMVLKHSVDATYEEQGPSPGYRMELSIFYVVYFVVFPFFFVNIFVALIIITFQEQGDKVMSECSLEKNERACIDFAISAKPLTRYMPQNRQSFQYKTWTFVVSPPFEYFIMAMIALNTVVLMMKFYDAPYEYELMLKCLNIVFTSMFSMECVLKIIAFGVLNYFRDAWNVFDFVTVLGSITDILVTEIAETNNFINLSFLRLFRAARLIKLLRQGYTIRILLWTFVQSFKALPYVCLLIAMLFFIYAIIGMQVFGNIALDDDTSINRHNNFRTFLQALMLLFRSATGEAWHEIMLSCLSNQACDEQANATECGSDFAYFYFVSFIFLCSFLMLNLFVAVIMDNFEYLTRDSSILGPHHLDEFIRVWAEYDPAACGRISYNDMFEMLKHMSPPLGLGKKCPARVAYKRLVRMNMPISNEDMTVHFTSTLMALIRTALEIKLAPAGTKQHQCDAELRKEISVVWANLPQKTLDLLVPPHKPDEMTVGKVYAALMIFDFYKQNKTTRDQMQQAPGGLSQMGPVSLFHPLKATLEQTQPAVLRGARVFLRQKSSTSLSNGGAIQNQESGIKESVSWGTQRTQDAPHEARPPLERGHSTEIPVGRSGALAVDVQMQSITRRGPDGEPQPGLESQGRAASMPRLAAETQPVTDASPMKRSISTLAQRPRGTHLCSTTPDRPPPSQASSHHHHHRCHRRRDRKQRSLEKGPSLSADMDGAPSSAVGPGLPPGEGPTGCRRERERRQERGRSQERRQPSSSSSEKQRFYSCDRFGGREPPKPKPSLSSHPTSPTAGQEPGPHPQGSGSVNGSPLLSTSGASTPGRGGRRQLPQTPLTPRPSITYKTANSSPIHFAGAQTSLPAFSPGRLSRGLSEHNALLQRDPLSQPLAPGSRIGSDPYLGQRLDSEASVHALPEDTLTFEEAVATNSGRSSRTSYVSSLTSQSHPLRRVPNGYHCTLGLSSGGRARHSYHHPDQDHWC

[2] = system: naïve C57BL6/J mice; conditions: mouse, in vivo
[3] = system: naïve C57BL6/J mice; conditions: mouse, in vivo; remark: listed apart in the source
[4] = system: naïve C57BL6/J mice; conditions: mouse, in vivo; remark: listed apart in the source
[5] = in vivo, cited from earlier work
[6] = system: surgery-induced mechanical allodynia; parameters: species or system mice (C57BL/6J); conditions: mouse, in vivo
[7] = system: surgery-induced thermal allodynia; parameters: species or system mice (C57BL/6J); conditions: mouse, in vivo
[8] = system: oxaliplatin-induced mechanical allodynia; parameters: species or system mice (C57BL/6J); conditions: mouse, in vivo
[9] = system: oxaliplatin-induced mechanical allodynia; parameters: species or system mice (C57BL/6J); conditions: mouse, in vivo; remark: listed apart in the source
[10] = system: cisplatin-induced mechanical allodynia; parameters: species or system mice (C57BL/6J); conditions: mouse, in vivo
[11] = system: CaV channel; conditions: cited from earlier work
[12] = system: mouse inflammatory pain; conditions: in vivo, sc; cited from earlier work
[13] = in vivo; cited from earlier work

C[C@@H](O)[C@@H]1NC(=O)[C@H](Cc2ccc(O)cc2)NC(=O)[C@@H]2C[C@@H](O)CN2C(=O)[C@H](CC(N)=O)NC(=O)[C@@H]2CSSC[C@@H]3NC(=O)[C@H](CO)NC(=O)[C@H](CO)NC(=O)CNC(=O)[C@@H]4C[C@@H](O)CN4C(=O)[C@H](CO)NC(=O)[C@H](CCCCN)NC(=O)[C@@H](N)CSSC[C@H](NC(=O)[C@H](CSSC[C@@H](C(=O)N[C@@H](Cc4ccc(O)cc4)C(N)=O)NC(=O)[C@H](CCCN=C(N)N)NC(=O)[C@H](CCCCN)NC1=O)NC(=O)[C@H](CC(N)=O)NC(=O)[C@H](Cc1ccc(O)cc1)NC(=O)[C@H](CO)NC(=O)[C@H]([C@@H](C)O)NC(=O)[C@@H]1C[C@@H](O)CN1C(=O)[C@H](CO)NC3=O)C(=O)N[C@@H](CCCN=C(N)N)C(=O)N[C@@H](CO)C(=O)N2 [GVIA]
IC50 [1]: 11.2 ± 3.3 nM | Effect on basal mechanical PWT [2]: did not significantly change mechanical and thermal PWTs | Effect on basal thermal PWT [3]: did not significantly change mechanical and thermal PWTs | Ataxia index [4]: 6.9 ± 1.7 | Ataxia index (paw slips/distance covered) [4]: 6.9 ± 1.7 m | Distance covered [4]: 1.7 ± 0.2 m | Number of paw slips [4]: 11.3 ± 2.8

CSCC[C@@H]1NC(=O)[C@H](CC(C)C)NC(=O)[C@H](CCCNC(=N)N)NC(=O)[C@H](CO)NC(=O)[C@@H]2CSSC[C@@H]3NC(=O)[C@H](CO)NC(=O)CNC(=O)[C@H]([C@@H](C)O)NC(=O)[C@H](CSSC[C@H](N)C(=O)N[C@@H](CCCCN)C(=O)NCC(=O)N[C@@H](CCCCN)C(=O)NCC(=O)N[C@@H](C)C(=O)N[C@@H](CCCCN)C(=O)N2)NC(=O)[C@H](CSSC[C@@H](C(N)=O)NC(=O)[C@H](CCCCN)NC(=O)CNC(=O)[C@H](CO)NC(=O)[C@H](CCCNC(=N)N)NC3=O)NC(=O)[C@H](CC(=O)O)NC(=O)[C@H](Cc2ccc(O)cc2)NC1=O [MVIIA]
Effect on basal mechanical PWT [2]: did not significantly change mechanical and thermal PWTs | Effect on basal thermal PWT [3]: did not significantly change mechanical and thermal PWTs | Ataxia index [4]: 6.7 ± 1.6 | Ataxia index (paw slips/distance covered) [4]: 6.7 ± 1.6 m | Distance covered [4]: 1.8 ± 0.3 m | Number of paw slips [4]: 11.0 ± 1.8 | Number of paw slips (printed with unit g) [4]: 11.0 ± 1.8 g | Oral bioavailability and CNS access ([5]; po): Poor oral bioavailability and CNS access | Plasma half-life [5]: short plasma half-life

CC(C)C[C@@H]1NC(=O)[C@H](CCCNC(=N)N)NC(=O)[C@@H]2CSSC[C@@H]3NC(=O)[C@H](CO)NC(=O)[C@H](C)NC(=O)CNC(=O)[C@H](CCCCN)NC(=O)CNC(=O)[C@H](CCCCN)NC(=O)[C@@H](N)CSSC[C@H](NC(=O)[C@H](CSSC[C@@H](C(N)=O)NC(=O)[C@H](CCCNC(=N)N)NC(=O)CNC1=O)NC(=O)[C@H](CC(=O)O)NC(=O)[C@H](Cc1ccc(O)cc1)NC(=O)[C@H](CO)NC(=O)[C@H]([C@@H](C)O)NC(=O)[C@H](CCCNC(=N)N)NC(=O)[C@H](CCCNC(=N)N)NC3=O)C(=O)N[C@@H]([C@@H](C)O)C(=O)NCC(=O)N[C@@H](CO)C(=O)N2 [CVIF] (H-CKGKGASCRRTSYDCCTGSCRLGRC-NH2; disulfide 1-16, 8-20, 15-25)
Effect on PSP mechanical allodynia, 6.0 pmol/paw [6]: remained unchanged; also recorded: did not produce any significant antiallodynic effect | Mechanical PWT, PSP, 6.0 pmol/paw [6]: 1.4 ± 0.1 g | Effect on PSP thermal allodynia [7]: did not reverse thermal allodynia | Thermal PWT, PSP, 2.0 pmol/paw [7]: 48.9 ± 0.4 °C | Activity across the pain models [8]: inactive in these pain models; also recorded: not found effective in any of the peripheral pain models | Effect on OIPN mechanical PWT, 6 pmol/paw [8]: did not significantly change PWTs; also recorded: did not elicit significant antiallodynic effect | Mechanical PWT, OIPN, 2.0 pmol/paw [8]: 1.9 ± 0.2 g | Mechanical PWT, OIPN, 6.0 pmol/paw [8]: 1.7 ± 0.1 g | Effect of contralateral administration on OIPN mechanical PWT [9]: did not significantly change mechanical PWTs; also recorded: did not reverse mechanical allodynia | Mechanical PWT, OIPN, contralateral administration [9]: 1.6 ± 0.4 g | Effect on CisIPN mechanical PWT [10]: did not significantly change the PWTs; also recorded: did not produce any significant antiallodynic effect | Mechanical PWT, CisIPN, 2 pmol/paw [10]: 2.0 ± 0.3 g | Effect on basal mechanical PWT [2]: did not significantly change mechanical and thermal PWTs | Mechanical PWT [2]: 3.1 ± 0.2 g | Effect on basal thermal PWT [3]: did not significantly change mechanical and thermal PWTs | Thermal PWT [3]: 50.8 ± 0.8 °C | Ataxia index [4]: 7.3 ± 1.8 | Ataxia index (paw slips/distance covered) [4]: 7.3 ± 1.8 m | Distance covered [4]: 1.7 ± 0.4 m | Number of paw slips [4]: 10.5 ± 1.5 | Number of paw slips (printed with unit g) [4]: 10.5 ± 1.5 g | State dependence of affinity [11]: higher affinity for channels in the inactivated state | Effect on inflammatory pain [12]: partially reversed the incapacitance of mouse inflammatory pain | Side effects after subcutaneous administration [12]: did not cause side effects | Safety profile [13]: better safety profile in preclinical studies
